The results in this text go back to ChEMBL document CHEMBL1131118, “Inhibition of monoamine oxidase-B by condensed pyridazines and pyrimidines: effects of lipophilicity and structure-activity relationships” (J Med Chem, 1998).

Broadly, the inhibition is the percentage by which the read-out fell short of the control. Read a high inhibition as a strong effect. The term logP denotes a log measure of how a compound divides between an organic and an aqueous phase. High values mean a more lipophilic compound, low ones a more hydrophilic compound. The IC50 is the concentration that inhibits the measured activity by half.

Data set [1] has as its target T1, Amine oxidase [flavin-containing] A (Rattus norvegicus, UniProt P21396).
T1 sequence (P21396 whole entry): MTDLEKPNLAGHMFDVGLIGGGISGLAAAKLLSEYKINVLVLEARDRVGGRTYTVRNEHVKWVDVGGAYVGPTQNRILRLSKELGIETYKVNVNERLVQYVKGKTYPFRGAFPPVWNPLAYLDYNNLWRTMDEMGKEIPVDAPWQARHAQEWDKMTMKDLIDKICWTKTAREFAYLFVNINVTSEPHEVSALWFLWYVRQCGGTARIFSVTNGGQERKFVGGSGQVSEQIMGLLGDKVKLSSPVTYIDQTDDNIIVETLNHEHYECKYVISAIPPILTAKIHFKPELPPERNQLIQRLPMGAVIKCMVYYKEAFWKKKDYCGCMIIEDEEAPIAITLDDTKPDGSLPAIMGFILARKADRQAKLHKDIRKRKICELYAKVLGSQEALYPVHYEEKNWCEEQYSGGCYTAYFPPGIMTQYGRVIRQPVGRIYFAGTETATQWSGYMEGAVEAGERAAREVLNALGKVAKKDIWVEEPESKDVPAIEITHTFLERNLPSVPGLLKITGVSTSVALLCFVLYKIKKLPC
Nature of the data set: Inhibitory activity against Monoamine oxidase A from rat brain mitochondria at 50 uM.

Data set [2] addresses T2, Amine oxidase [flavin-containing] B (Rattus norvegicus, UniProt P19643).
T2 sequence (P19643 whole entry): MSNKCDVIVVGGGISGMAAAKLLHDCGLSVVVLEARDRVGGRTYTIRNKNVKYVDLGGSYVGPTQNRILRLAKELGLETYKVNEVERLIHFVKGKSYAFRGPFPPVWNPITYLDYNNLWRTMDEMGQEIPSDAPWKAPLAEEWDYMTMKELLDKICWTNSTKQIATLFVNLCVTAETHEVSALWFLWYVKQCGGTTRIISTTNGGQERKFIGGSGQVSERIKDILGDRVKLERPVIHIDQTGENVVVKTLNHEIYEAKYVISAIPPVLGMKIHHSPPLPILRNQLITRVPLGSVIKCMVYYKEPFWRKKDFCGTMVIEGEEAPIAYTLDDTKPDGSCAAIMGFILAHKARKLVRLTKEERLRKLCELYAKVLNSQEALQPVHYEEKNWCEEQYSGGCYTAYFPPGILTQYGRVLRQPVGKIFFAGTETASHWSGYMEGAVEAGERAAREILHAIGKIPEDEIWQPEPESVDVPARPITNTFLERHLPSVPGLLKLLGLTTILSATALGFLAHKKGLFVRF
Nature of the data set: Inhibitory activity against Monoamine oxidase B from rat brain mitochondria at 50 uM.

The nature of data set [3]: Partition coefficient (logP) (cyclohexane). The conditions noted are these: octanol/water.
The target in data set [4] is T2, Amine oxidase [flavin-containing] B. Description: Inhibitory activity against Monoamine oxidase B from rat brain mitochondria.
Data set [5] is described as follows: Partition coefficient (logP). The conditions noted are these: octanol/water.
The target of data set [6] is T2, Amine oxidase [flavin-containing] B. Nature of the data set: Inhibitory activity against Monoamine oxidase B from rat brain mitochondria at 100 uM.
Data set [7] deals with T1, Amine oxidase [flavin-containing] A. Nature of the data set: Inhibitory activity against Monoamine oxidase A from rat brain mitochondria at 100 uM.
In data set [8] the target is T2, Amine oxidase [flavin-containing] B. Nature of the data set: Inhibitory activity against Monoamine oxidase B from rat brain mitochondria at 5 uM.
The target in data set [9] is T1, Amine oxidase [flavin-containing] A. Description: Inhibitory activity against Monoamine oxidase A from rat brain mitochondria at 5 uM.
Data set [10] concerns the target T2, Amine oxidase [flavin-containing] B.
Description: Inhibitory activity against Monoamine oxidase B from rat brain mitochondria at 125 uM
In data set [11] the target is T1, Amine oxidase [flavin-containing] A. Description: Inhibitory activity against Monoamine oxidase A from rat brain mitochondria.
Data set [12] has as its target T2, Amine oxidase [flavin-containing] B. Nature of the data set: Inhibitory activity against Monoamine oxidase B from rat brain mitochondria at 10 uM.
The target is the same in data set [13]. Nature of the data set: Inhibitory activity against Monoamine oxidase B.
The target of data set [14] is T1, Amine oxidase [flavin-containing] A.
Description: Inhibitory activity against Monoamine oxidase A from rat brain mitochondria at 25 uM

Regarding `c1ccc(-c2cc3c(nn2)CCC3)cc1`, the inhibition at 50 µM was found to be 44% in data set [1] and 12% in data set [2].
For `O=C1c2ccccc2-c2nnc(-c3cccc([N+](=O)[O-])c3)cc21`, the figures for the log partition coefficient (logP) in data set [3] and in [5] were 1.66 and more than 3, respectively. This compound also gave an IC50 in data set [4] of 0.631 µM.
In the case of `Cc1c(-c2ccccc2)nnc2c1C(=O)c1ccccc1-2`, the values for the logP in data set [3] and in data set [5] were 2.16 and more than 3, respectively.
As for `O=C1c2ccccc2-c2nnc(-c3ccccc3[N+](=O)[O-])cc21`, the logP was determined as 1.05 in data set [3] and 2.64 in [5].
With `O=C1c2ccccc2-c2nnccc21`, the values for the log partition coefficient (logP) in [3] and in data set [5] were -0.29 and 1.22, respectively.
As for `O=C1c2ccccc2-c2nnc(-c3ccc([N+](=O)[O-])cc3)cc21`, the logP in [3] is 2.34; in data set [5] it was more than 3.
Regarding `COc1ccc(-c2cc3c(nn2)-c2ccccc2C3=O)cc1`, the figures for the logP in data set [3] and in data set [5] were 2.51 and more than 3, respectively.
The like results for `COc1cccc(-c2cc3c(nn2)-c2ccccc2C3=O)c1` were, in that order, 2.83 and more than 3.
The like results for `COc1ccccc1-c1cc2c(nn1)-c1ccccc1C2=O` were, in that order, 2.26 and more than 3.
In the case of `O=C(c1ccccc1)c1ccnnc1`, the inhibition at 100 µM in data set [6] was 29%; in data set [7] it was 18%. The lipophilicity (logP) in data set [3] was -0.45; in data set [5] it was 1.09.
Consider `c1ccc(-c2cc3[nH]c4ccccc4c3nn2)cc1`, for which the inhibition at 5 µM in data set [8] and in data set [9] was 0% in each case.
On to `O=c1[nH]c(=O)c2cc(-c3ccccc3)nnc2[nH]1`, for which the log partition coefficient (logP) in data set [3] is -2.22; in data set [5], 1.56. In data set [10], this compound showed an inhibition at 125 µM of 32%. It took 16.4 µM to reach half-maximal inhibition in [11] (IC50).
On to `O=C1c2ccccc2-c2nnc(-c3ccc(O)cc3)cc21`, for which the values for the logP in data set [3] and in [5] were 0.13 and 2.88, respectively.
The like results for `O=C1c2ccccc2-c2nnc(-c3ccccc3O)cc21` were, in that order, 2.55 and 3.15.
Consider `O=C1c2ccccc2-c2nncc(-c3ccccc3)c21`, for which the results for the logP in data set [3] and in data set [5] were 1.4 and 2.8, respectively.
In the case of `O=C1c2ccccc2-c2nnc(-c3ccccc3F)cc21`, the lipophilicity (logP) in data set [3] is 2.07; in [5] it was more than 3.
For `O=C1c2ccccc2-c2cnc(-c3ccccc3)nc21`, the IC50 is 2.37 µM in [11] and 11.6 µM in data set [4].
Regarding `O=C1c2ccccc2-c2nnc(C(F)(F)F)cc21`, the figures for the log partition coefficient (logP) in data set [3] and in data set [5] were 0.7 and 2.21, respectively.
In turn, `O=C1c2ccccc2-c2nc(-c3ccccc3)ncc21` yielded an inhibition at 10 µM in data set [12] of 28%. Besides, the logP is 3.15 in data set [3] and more than 3 in [5]. In addition, the IC50 was 8.39 µM in data set [11] and 11.5 µM in data set [4].
`O=c1[nH]c(=O)c2cc(-c3ccc(C(F)(F)F)cc3)nnc2[nH]1`: the inhibition at 5 µM was 12.5% in [8] and 15% in data set [9].
As to `O=C1c2ccccc2-c2nnc(-c3ccc(F)cc3)cc21`, the log partition coefficient (logP) in data set [3] was 2.56; in [5] it was more than 3.
In the case of `O=C1CCCc2nnc(-c3ccccc3)cc21`, the log partition coefficient (logP) in data set [3] stood at 0.6; in data set [5], 2.05. Moreover, the IC50 in data set [11] is 59.1 µM; in [4] it was 74.8 µM; in data set [13] it was 74.1 µM.
With `Cc1cc2c(nn1)-c1ccccc1C2=O`, the logP in [3] is -0.04; in data set [5], 1.58.
`O=C1c2ccccc2-c2nnc(-c3ccccc3)cc21` came in with an inhibition at 25 µM in [14] of 0%. In addition, the log partition coefficient (logP) is 2.34 in [3] and more than 3 in data set [5].
